Source: patent US20230076411A1, “LASSO PEPTIDES FOR TREATMENT OF CANCER” (Lassogen, Inc., priority 2020, published 2023)
One block for each molecule: values may come before it. Positions of bridges follow the written chain, without caps; N, C: chain ends. Non-standard residues stand in square brackets, D forms with d. Residues, ends and D or L forms follow the SMILES beside them. No end group written: not given here. Trp(7-OH) = N[C@@H](Cc1c[nH]c2c(O)cccc12)C(=O)O; 2Nal = N[C@@H](Cc1ccc2ccccc2c1)C(=O)O

How the values were obtained:
[1] = tested on: human melanoma cell lines RPMI-7951, SK MEL 28, SK MEL 31, SK MEL 24, A375; test: Melanoma cell growth inhibition (Cell Titer-Glo 2.0 Luminescent Cell Viability Assay); type: cell-based; conditions: 72 hours incubation with compounds
Text: The Cell Titer-Glo® 2.0 Luminescent Cell Viability Assay is a sensitive homogeneous method to determine the number of viable cells in culture. Detection is based on using the luciferase reaction to measure the amount of ATP from viable cells. The amount of ATP in cells correlates with cell viability. Within minutes after a loss of membrane integrity, cells lose the ability to synthesize ATP, and endogenous ATPases destroy any remaining ATP; thus the levels of ATP fall precipitously. The Cell Titer-Glo® 2.0 Reagent does three things upon addition to cells. It lyses cell membranes to release ATP; it inhibits endogenous ATPases, and it provides luciferin, luciferase and other reagents necessary to measure ATP using a bioluminescent reaction. The unique properties of a proprietary stable luciferase. There is a linear relationship (r2=0.99) between the luminescent signal and the number of cells from 0 to 50.000 cells per well. […]
Conditions: 37° C., air 95%; HEPA-filtered carbon dioxide (CO2) 5%, humidified atmosphere. • Cells are grown in 175 cm^2 flasks to 80-90% of confluency. • Culture media are aspirated and cell layer is briefly rinsed with Versen solution to remove all traces of serum. • 2 mL of Accutase is added to cells. • Flasks are returned to incubator for 5 min to allow cell detachment. • Add 6.0 mL of complete growth medium. • Single cell suspension is created by gently pipetting. • Cells are counted using a Hematocytometer and a suspension with the desired cell concentration is prepared. […]
Stock solutions (70 μL) are diluted with cell culture media to produce 500× serial dilutions and 10 of final compound dilutions are added to cells in assay plates to screen a series of 10 doses starting at […]. […] Luminescence intensity is measured for each well using the Tecan M 1000 microplate reader after 5 min of incubation with the Cell Titer-Glo® 2.0. The number of viable cells in culture is determined based on quantitation of the ATP present in each culture well. […] P values are calculated by using the Student's t test for absolute values. […]

[2] = target: T1, endothelin B receptor (ETBR) (Homo sapiens, UniProt P24530); test: IC50 of BQ-788 against ETAR and ETBR (FIG. 3B); type: binding; conditions: from IC50 against ETAR and ETBR
T1 sequence (P24530 27-442): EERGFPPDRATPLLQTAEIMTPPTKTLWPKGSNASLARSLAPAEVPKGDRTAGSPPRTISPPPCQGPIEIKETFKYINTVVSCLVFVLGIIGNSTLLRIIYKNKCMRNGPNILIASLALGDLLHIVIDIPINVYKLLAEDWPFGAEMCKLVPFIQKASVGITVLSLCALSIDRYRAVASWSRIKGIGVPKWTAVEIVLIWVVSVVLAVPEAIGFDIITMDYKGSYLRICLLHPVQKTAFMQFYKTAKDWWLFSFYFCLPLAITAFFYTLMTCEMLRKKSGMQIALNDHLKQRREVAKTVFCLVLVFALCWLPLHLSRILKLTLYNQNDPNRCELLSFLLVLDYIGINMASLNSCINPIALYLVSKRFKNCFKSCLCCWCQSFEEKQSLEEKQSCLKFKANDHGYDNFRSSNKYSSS

[3] = target: endothelin A receptor (ETAR) (Homo sapiens, UniProt P25101); test: ETAR IC50 (nM)
Text: Table printed on a drawing sheet, FIG. 3
Head of the field: ETAR IC50 (nM)

[4] = target: human recombinant endothelin B receptor (ETBR) (human) (UniProt P24530); test: not stated on the sheet or in the legend; the receptor source, species and competing ligand are not given, and the value may come from the literature
ETBR receptors = target: T2, ETBR receptors (Homo sapiens, UniProt P24530); conditions: physiological concentrations; cited from earlier work
T2 sequence (P24530 27-442): T1 sequence (P24530 27-442)

[5] = target: T3, human recombinant ETB receptor (ETBR) (Homo sapiens, UniProt P24530); test: ET-1 Receptor Binding Assay ([125I]ET-1, CHO cell membranes expressing ETBR)
T3 construct: expressed in transfected cells; host or cells: CHO cells, stably transfected (vector pME18S-FL3); membranes prepared from them
T3 sequence (P24530 27-442): T1 sequence (P24530 27-442)
Experimental: Preparation of Membranes. CHO cell membranes are prepared by washing ETAR- or ETBR-transfected cells with phosphate buffered saline and centrifugation. […] The homogenates are centrifuged at 8,000×g for 10 minutes and supernatants are then centrifuged at 40,000×g for 1 hour at 4° C. The pellets are homogenized in buffer A and recentrifuged at 40,000×g for 1 hour.
(§1) The glass filters are washed three times with cold 50 mM Tris-HCl buffer containing 1 mM EDTA. The radioactivity on the washed filter is measured by using a Packard γ counter.

[6] = target: T4, human recombinant endothelin B receptor (ETBR) (human, UniProt P24530 27-442); test: displacement of [125I]ET-1 from CHO-ETBR membranes, filtration
T4 construct: whole, on cells; The assay used membranes prepared from CHO-ETBR cells; also called ETB receptor; endothelin receptor type B
T4 sequence (looked up): T1 sequence (P24530 27-442)
Experimental: Preparation of Membranes. CHO cell membranes are prepared by washing ETAR- or ETBR-transfected cells with phosphate buffered saline and centrifugation. The resulting cell pellets are homogenized with a polytron (settings 8 for 30 seconds×2) in 5 volumes of buffer A containing 1 mM NaHCO₃, 5 mM EDTA (pH 8.3), 5 μg/ml Leupeptin, 5 μg/ml Pepstatin A, and 40 μM phenylmethylsulfonyl fluoride. The homogenates are centrifuged at 8,000×g for 10 minutes and supernatants are then centrifuged at 40,000×g for 1 hour at 4° C. The pellets are homogenized in buffer A and recentrifuged at 40,000×g for 1 hour. The resulting pellets are homogenized in buffer A supplemented with 130 mM NaCl, 5 mM Na₂HPO₄, and 1.5 mM KH₂PO₄ and stored at −70° C.
as §1

Molecule: CC(C)C[C@@H]1NC(=O)[C@@H](C(C)C)NC(=O)[C@@H]2CCCN2C(=O)[C@@H](CC(=O)O)NC(=O)[C@@H](Cc2c[nH]c3ccccc23)NC1=O [BQ-123] (cyclo(L[dW][dD]P[dV]))
growth of all tested human melanoma cell lines [1]: not

Molecule: CCCC[C@@H](NC(=O)[C@@H](Cc1cn(C(=O)OC)c2ccccc12)NC(=O)[C@H](CC(C)(C)C)NC(=O)N1[C@H](C)CCC[C@@H]1C)C(=O)O [BQ-788]
binding selectivity ETBR over ETAR [2]: selectively binds to ETBR over ETAR
growth of all tested human melanoma cell lines [1]: inhibited
IC50 [3]: 280 nM

Molecule: BQ-788 (peptide)
IC50 [4]: 1.2 nM

Molecule: ET-2: cognate endothelin ligand, 21-amino acid peptide (CSCSSWLDKECVYFCHLDIIW; ends and bridges not checked; cysteine pairing not given here; UniProt P20800 49-69, looked up)
Kd (ETBR receptors): 0.015 nM

Molecule: GNWHGTAPDWFFNYYW [Lasso 1]
growth of all tested human melanoma cell lines [1]: inhibited

Molecule: MTEQSEQTPAEYIPPMLVEVGEFTEDTLGNWHGTAPDWFFNYYW [Lasso 18]
IC50 [5]: > 5000 nM

The remaining lines, values ahead:

IC50 [5]: > 5000 nM
Molecule: MTEQSEQTPAEYIPPMLVEVGEFTEDTLGNWHGTSPDWFFNYYW [Lasso 20]

IC50 [6]: 6.3 nM
B1: lasso peptide having primary sequence of SEQ ID NO: 54 (peptide)
peptide: GNWHGTAPDWFFNYY[2Nal]
modifications: lactam N-9
notes: also called Lasso 54

IC50 [6]: > 70 nM
B2: lasso peptide having primary sequence of SEQ ID NO: 48 (peptide)
peptide: GNWHGTAPDWFFNYYNIIW
modifications: lactam N-9
notes: also called Lasso 48

IC50 [6]: 8 nM
B3: lasso peptide having primary sequence of SEQ ID NO: 4 (peptide)
peptide: GNWHGTSPDWFFNYY[Trp(7-OH)]
modifications: lactam N-9
notes: also called Lasso 4
